Assay results taken from patent publication US10106556B2, “Heterocyclic compound” (TAKEDA PHARMACEUTICAL COMPANY LIMITED, priority 2015, dated 2018).

Biological target: T1, His-hMAGL (recombinant polyhistidine tagged human MAGL protein) (Homo sapiens, UniProt Q99685)
T1 construct: made in house; host or cells: E. coli BL21(DE3)
T1 sequence (Q99685 1-303): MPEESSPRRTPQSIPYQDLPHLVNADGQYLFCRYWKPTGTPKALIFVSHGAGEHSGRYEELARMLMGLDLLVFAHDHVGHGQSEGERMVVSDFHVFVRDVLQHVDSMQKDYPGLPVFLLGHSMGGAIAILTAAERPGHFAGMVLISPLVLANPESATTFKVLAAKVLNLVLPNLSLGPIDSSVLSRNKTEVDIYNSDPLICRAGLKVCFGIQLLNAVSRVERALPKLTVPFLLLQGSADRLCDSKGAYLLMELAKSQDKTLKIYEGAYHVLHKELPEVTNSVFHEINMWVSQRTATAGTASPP
Test: Measurement of MAGL inhibitory activity (arachidonic acid production from 2-arachidonylglycerol, RapidFire-mass spectrometry)
Format: biochemical
Settings: MAGL inhibitory rate at 10 μM test compound; 60 min preincubation with His-hMAGL, 2-arachidonylglycerol substrate, 10 min reaction at room temperature
Summary of the method: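 Recombinant His-tagged human MAGL converted 2-arachidonylglycerol to arachidonic acid. Reactions received acetonitrile with 3 μM arachidonic acid-d8 as internal standard, and product was quantified by RapidFire SPE (C4) with negative-mode SRM mass spectrometry. Percent inhibition was calculated against compound-free and enzyme-free controls.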

Structure (SMILES) | inhibition at 10 µM [%]
Cc1nc2cc(OCC3CN(C(=O)c4cc5c(cc4F)OCC(=O)N5)C3)ccc2s1 [Example 151, 7-fluoro-6-((3-(((2-methyl-1,3-benzothiazol-5-yl)oxy)methyl)azetidin-1-yl)carbonyl)-2H-1,4-benzoxazin-3(4H)-one] | 92
N#Cc1cccc(COC2CN(C(=O)c3cc4c(cc3F)OCC(=O)N4)C2)c1 [Example 334, 3-(((1-((7-fluoro-3-oxo-3,4-dihydro-2H-1,4-benzoxazin-6-yl)carbonyl)azetidin-3-yl)oxy)methyl) benzonitrile] | 98
CC(=O)n1ncc2c(OCC3CCN(C(=O)c4ccc5c(c4)NC(=O)CO5)CC3)cccc21 [Example 63, 6-((4-(((1-acetyl-1H-indazol-4-yl)oxy)methyl)piperidin-1-yl)carbonyl)-2H-1,4-benzoxazin-3(4H)-one] | 93
O=C(c1ccc2ccc(=O)[nH]c2c1)N1CCC(COc2ccc(F)cc2Cl)CC1 [Example 79, 7-((4-((2-chloro-4-fluorophenoxy)methyl)piperidin-1-yl)carbonyl)quinolin-2(1H)-one] | 103
O=C1COc2cc(F)c(C(=O)N3CC(COc4ccc5ccccc5c4)C3)cc2N1 [Example 169, 7-fluoro-6-((3-((2-naphthyloxy)methyl)azetidin-1-yl)carbonyl)-2H-1,4-benzoxazin-3(4H)-one] | 97
O=C1COc2cc(F)c(C(=O)N3CCC(COc4cccn5nccc45)CC3)cc2N1 [Example 274, 7-fluoro-6-((4-((pyrazolo[1,5-a]pyridin-4-yloxy)methyl)piperidin-1-yl)carbonyl)-2H-1,4-benzoxazin-3(4H)-one] | 102
N#Cc1cc(Cl)ccc1OCC1CCN(C(=O)c2cc3c(cc2F)OCC(=O)N3)CC1 [Example 72, 5-chloro-2-((1-((7-fluoro-3-oxo-3,4-dihydro-2H-1,4-benzoxazin-6-yl)carbonyl)piperidin-4-yl)methoxy)benzonitrile] | 100
O=C1COc2ncc(C(=O)N3CCC(COc4ccc(Cl)cc4Cl)CC3)cc2N1 [Example 17, 7-((4-((2,4-dichlorophenoxy)methyl)piperidin-1-yl)carbonyl)-1H-pyrido[2,3-b][1,4]oxazin-2 (3H)-one] | 101
N#Cc1cccc(OCC2CCN(C(=O)c3ccc4c(c3)NC(=O)CO4)CC2)c1 [Example 48, 3-((1-((3-oxo-3,4-dihydro-2H-1,4-benzoxazin-6-yl)carbonyl)piperidin-4-yl)methoxy)benzonitrile] | 89
O=C1COc2cc(F)c(C(=O)N3CCC(COC4CCCCC4)CC3)cc2N1 [Example 80, 6-((4-((cyclohexyloxy)methyl)piperidin-1-yl)carbonyl)-7-fluoro-2H-1,4-benzoxazin-3(4H)-one] | 100
O=C1COc2ncc(C(=O)N3CCC(COc4ccc(Cl)cc4)CC3)cc2N1 [Example 6, 7-((4-((4-chlorophenoxy)methyl)piperidin-1-yl)carbonyl)-1H-pyrido[2,3-b][1,4]oxazin-2(3H)-one] | 98
CCc1ccc(-c2ccnc(C)c2OCC2CN(C(=O)c3cc4c(cc3F)OCC(=O)N4)C2)nc1 [Example 176, 6-((3-(((5-ethyl-2′-methyl-2,4′-bipyridin-3′-yl)oxy)methyl)azetidin-1-yl)carbonyl)-7-fluoro-2H-1,4-benzoxazin-3(4H)-one] | 95
O=C1COc2cc(F)c(C(=O)N3CC(COc4ccc(Cl)c(F)c4)C3)cc2N1 [Example 130, 6-((3-((4-chloro-3-fluorophenoxy)methyl)azetidin-1-yl)carbonyl)-7-fluoro-2H-1,4-benzoxazin-3(4H)-one] | 103
O=C1COc2cc(F)c(C(=O)N3CC(COc4cccc5scnc45)C3)cc2N1 [Example 105, 6-((3-((1,3-benzothiazol-4-yloxy)methyl)azetidin-1-yl)carbonyl)-7-fluoro-2H-1,4-benzoxazin-3(4H)-one] | 97
O=C1COc2ccc(C(=O)N3CCC(COc4cc(Cl)cc(Cl)c4)CC3)cc2N1 [Example 45, 6-((4-((3,5-dichlorophenoxy)methyl)piperidin-1-yl)carbonyl)-2H-1,4-benzoxazin-3(4H)-one] | 98
COc1cc2c(cc1C(=O)N1CCC(COc3ccc(F)cc3Cl)CC1)NC(=O)CO2 [Example 97, 6-((4-((2-chloro-4-fluorophenoxy)methyl)piperidin-1-yl)carbonyl)-7-methoxy-2H-1,4-benzoxazin-3(4H)-one] | 100
N#Cc1cc(Cl)ccc1OCC1CCN(C(=O)c2ccc3c(c2)NC(=O)CO3)CC1 [Example 33, 5-chloro-2-((1-((3-oxo-3,4-dihydro-2H-1,4-benzoxazin-6-yl)carbonyl)piperidin-4-yl)methoxy)benzonitrile] | 99

More lines, now with the values ahead:

inhibition at 10 µM [%] | Structure (SMILES)
103 | Cc1ccc(OCC2CN(C(=O)c3cc4c(cc3F)OCC(=O)N4)C2)c(C)c1 [Example 165, 6-((3-((2,4-dimethylphenoxy)methyl)azetidin-1-yl)carbonyl)-7-fluoro-2H-1,4-benzoxazin-3(4H)-one]
102 | Cn1nccc1-c1ccc(OCC2CN(C(=O)c3cc4c(cc3F)OCC(=O)N4)C2)c(F)c1 [Example 254, 7-fluoro-6-((3-((2-fluoro-4-(1-methyl-1H-pyrazol-5-yl)phenoxy)methyl)azetidin-1-yl)carbonyl)-2H-1,4-benzoxazin-3(4H)-one]
99 | Cc1ccncc1-c1ccc(OCC2CN(C(=O)c3cc4c(cc3F)OCC(=O)N4)C2)c(F)c1 [Example 237, 7-fluoro-6-((3-((2-fluoro-4-(4-methylpyridin-3-yl)phenoxy)methyl)azetidin-1-yl)carbonyl)-2H-1,4-benzoxazin-3(4H)-one]
100 | Cc1nc(C)c(-c2ccc(OCC3CN(C(=O)c4cc5c(cc4F)OCC(=O)N5)C3)c(F)c2)s1 [Example 260, 6-((3-((4-(2,4-dimethyl-1,3-thiazol-5-yl)-2-fluorophenoxy)methyl)azetidin-1-yl)carbonyl)-7-fluoro-2H-1,4-benzoxazin-3(4H)-one]
101 | Cc1cc(-c2ccc(OCC3CN(C(=O)c4cc5c(cc4F)OCC(=O)N5)C3)c(F)c2)ccn1 [Example 264, 7-fluoro-6-((3-((2-fluoro-4-(2-methylpyridin-4-yl)phenoxy)methyl)azetidin-1-yl)carbonyl)-2H-1,4-benzoxazin-3(4H)-one]
103 | CCc1ncccc1-c1cc(Cl)ccc1OCC1CN(C(=O)c2cc3c(cc2F)OCC(=O)N3)C1 [Example 199, 6-((3-((4-chloro-2-(2-ethylpyridin-3-yl)phenoxy)methyl)azetidin-1-yl)carbonyl)-7-fluoro-2H-1,4-benzoxazin-3(4H)-one]
102 | Cc1ccc(OCC2CN(C(=O)c3cc4c(cc3F)OCC(=O)N4)C2)c(Cl)c1 [Example 117, 6-((3-((2-chloro-4-methylphenoxy)methyl)azetidin-1-yl)carbonyl)-7-fluoro-2H-1,4-benzoxazin-3(4H)-one]
98 | O=C1COc2cc(F)c(C(=O)N3CC(COc4ccc(-c5cccnc5)cc4F)C3)cc2N1 [Example 261, 7-fluoro-6-((3-((2-fluoro-4-(pyridin-3-yl)phenoxy)methyl)azetidin-1-yl)carbonyl)-2H-1,4-benzoxazin-3(4H)-one]
100 | O=C1COc2cc(F)c(C(=O)N3CC(COc4ccc(C5=CCOCC5)cc4F)C3)cc2N1 [Example 244, 6-((3-((4-(3,6-dihydro-2H-pyran-4-yl)-2-fluorophenoxy)methyl)azetidin-1-yl)carbonyl)-7-fluoro-2H-1,4-benzoxazin-3(4H)-one]
101 | O=C1COc2cc(F)c(C(=O)N3CC(COc4ccc(Cl)cc4-c4ccncc4Cl)C3)cc2N1 [Example 210, 6-((3-((4-chloro-2-(3-chloropyridin-4-yl)phenoxy)methyl)azetidin-1-yl)carbonyl)-7-fluoro-2H-1,4-benzoxazin-3(4H)-one]
88 | O=C1COc2cc(F)c(C(=O)N3CC(COc4ccc(-c5ccc(Cl)cn5)cc4F)C3)cc2N1 [Example 229, 6-((3-((4-(5-chloropyridin-2-yl)-2-fluorophenoxy)methyl)azetidin-1-yl)carbonyl)-7-fluoro-2H-1,4-benzoxazin-3(4H)-one]
100 | Cc1nc(F)ccc1-c1ccc(OCC2CN(C(=O)c3cc4c(cc3F)OCC(=O)N4)C2)c(F)c1 [Example 290, 7-fluoro-6-((3-((2-fluoro-4-(6-fluoro-2-methylpyridin-3-yl)phenoxy)methyl)azetidin-1-yl)carbonyl)-2H-1,4-benzoxazin-3(4H)-one]
102 | O=C1COc2cc(F)c(C(=O)N3CC(COc4ccc(Cl)cc4-c4ccc(C(F)(F)F)nc4)C3)cc2N1 [Example 220, 6-((3-((4-chloro-2-(6-(trifluoromethyl)pyridin-3-yl)phenoxy)methyl)azetidin-1-yl)carbonyl)-7-fluoro-2H-1,4-benzoxazin-3(4H)-one]

Same assay, conditions: MAGL inhibitory rate at 10 μM test compound; 60 min preincubation with His-hMAGL, 2-arachidonylglycerol substrate, 10 min reaction at room temperature; 10 µM

% inhibition (10 μM) [%] | Structure (SMILES)
98 | CC(Oc1cc(F)cc(F)c1)C1CN(C(=O)c2cc3c(cc2F)OCC(=O)N3)C1 (stereo not shown) [Example 314, 6-((3-(1-(3,5-difluorophenoxy)ethyl)azetidin-1-yl)carbonyl)-7-fluoro-2H-1,4-benzoxazin-3(4H)-one]
